Laboratory results reported in ChEMBL document CHEMBL2375333, “Triterpenes from the aerial parts of Cimicifuga yunnanensis and their antiproliferative effects on p53(N236S) mouse embryonic fibroblasts” (J Nat Prod, 2013).

How the values were obtained:
MEF [1] = assay: Cytotoxicity against p53-/- mouse MEF cells harboring H-RasV12 after 48 hrs by MTT assay; type: functional, cell-based
MEF [2] = assay: Cytotoxicity against mouse wild type MEF cells after 48 hrs by MTT assay; type: cell-based
MEF [3] = assay: Cytotoxicity against mouse MEF cells harboring H-RasV12 and p53 N236S mutant after 48 hrs by MTT assay; type: functional, cell-based

Q: Which IC50 (MEF [1]) does the source give for C[C@@H]1C[C@@]2(O[C@H]3C[C@@]4(C)[C@@H]5CC[C@H]6C(C)(C)[C@@H](O)CC[C@@]67C[C@@]57C[C@@H](O)[C@]4(C)[C@@H]13)O[C@H](O)[C@]1(C)O[C@H]21 [ACTEOL] here?
A: 7.4 µM

Q: How did the IC50 (MEF [2]) turn out when C[C@@H]1C[C@]2(OC[C@](C)(O)[C@H]2O)O[C@H]2C[C@@]3(C)C4=CC[C@H]5C(C)(C)[C@@H](O)CC[C@]5(C)C4=CC[C@]3(C)[C@@H]12 was run?
A: 6 µM

Q: And the IC50 (MEF [3])?
A: 8.6 µM

Q: How did the IC50 (MEF [1]) turn out when C[C@@H]1C[C@H]2O[C@]3(O[C@@H]2C(C)(C)O)[C@H]1[C@@]1(C)CCC2=C(CC[C@H]4C(C)(C)[C@@H]5CC[C@@]4(C2)O5)[C@]1(C)[C@H]3O [ACERINOL] was run?
A: 10.2 µM

Q: For CC(=O)O[C@@H]1C[C@@]23C[C@@]24CC[C@H](O)C(C)(C)[C@@H]4CC[C@H]3[C@]2(C)C[C@@H]3OC(=O)C[C@@H](C)[C@@H]3[C@@]12C, which IC50 (MEF [1]) is on record?
A: 7.5 µM

Q: For C[C@@H]1C[C@]2(OC[C@](C)(O)[C@H]2O)O[C@H]2C[C@@]3(C)C4=C(C[C@@H](O)[C@]3(C)[C@@H]12)[C@@]1(C)CC[C@H](O)C(C)(C)[C@@H]1CC4, which IC50 (MEF [2]) is on record?
A: 14.5 µM

Q: And the IC50 (MEF [3])?
A: 5.5 µM

Q: C=C(C)[C@@H]1O[C@]23O[C@@H]1C[C@@H](C)[C@@H]2[C@@]1(C)CC[C@@]24C[C@@]25CC[C@H](O)C(C)(C)[C@@H]5CC[C@H]4[C@]1(C)[C@H]3O was tested. Which IC50 (MEF [1]) did it give?
A: 6.2 µM

Q: C[C@@H]1C[C@H]2O[C@@]3(O[C@@H]2C(C)(C)O)[C@H]1[C@@]1(C)[C@H](O)C[C@@]24C[C@@]25CC[C@H](O)C(C)(C)[C@@H]5CC=C4[C@]1(C)[C@H]3O was tested. Which IC50 (MEF [1]) did it give?
A: 9.8 µM
